Laboratory results taken from PubChem BioAssay AID200 (DTP/NCI, 2004).
Several values for one entry are separate records, joined by “and”; a condition that tells them apart may be missing. Equal entries are not always repeated. Toxic doses and inconclusive results are not listed. Where a SMILES comes first, the peptide text is derived from it. [ ]: non-standard residue; d: D form. The star is where a group is joined. Cbz = O=C(OCc1ccccc1)*; Nva = CCC[CH](N)C(=O)O

Tested on: B6C3F1 mice, B16 melanoma ip, median survival T/C
Experiment: NCI In Vivo Anticancer Drug Screen. Data for tumor model B16 Melanoma (intraperitoneal) in B6C3F1 mice
Settings: endpoint: median survival time, higher = longer survival
Outline: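 Values are T/C ratios: the measurement in treated animals divided by that in vehicle-treated controls, using survival or tumor size in mice carrying transplantable tumors.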

[1] = dose: 0.25 mg/kg/injection, schedule: Q01DX009 (ip), vehicle: saline + alcohol
[2] = dose: 0.5 mg/kg/injection, schedule: Q01DX009 (ip), vehicle: saline + alcohol
[3] = dose: 0.5 mg/kg/injection, schedule: Q01DX009 (ip), vehicle: saline
[4] = dose: 1.0 mg/kg/injection, schedule: Q01DX009 (ip), vehicle: saline + alcohol
[5] = dose: 1.0 mg/kg/injection, schedule: Q01DX009 (ip), vehicle: saline
[6] = dose: 2.0 mg/kg/injection, schedule: Q01DX009 (ip), vehicle: saline
[7] = dose: 4.0 mg/kg/injection, schedule: Q01DX009 (ip), vehicle: saline + alcohol
[8] = dose: 100.0 mg/kg/injection, schedule: Q01DX009 (ip), vehicle: Klucel (hydroxypropylcellulose) (HPC)
[9] = dose: 200.0 mg/kg/injection, schedule: Q01DX009 (ip), vehicle: Klucel (hydroxypropylcellulose) (HPC)
[10] = dose: 12.5 mg/kg/injection, schedule: Q01DX009 (ip), vehicle: saline with Tween-80
[11] = dose: 25.0 mg/kg/injection, schedule: Q01DX009 (ip), vehicle: saline with Tween-80
[12] = dose: 50.0 mg/kg/injection, schedule: Q01DX009 (ip), vehicle: saline with Tween-80
[13] = dose: 100.0 mg/kg/injection, schedule: Q01DX009 (ip), vehicle: saline with Tween-80
[14] = dose: 12.5 mg/kg/injection, schedule: Q01DX009 (ip), vehicle: saline
[15] = dose: 25.0 mg/kg/injection, schedule: Q01DX009 (ip), vehicle: saline
[16] = dose: 50.0 mg/kg/injection, schedule: Q01DX009 (ip), vehicle: saline
[17] = dose: 100.0 mg/kg/injection, schedule: Q01DX009 (ip), vehicle: saline
[18] = dose: 200.0 mg/kg/injection, schedule: Q01DX009 (ip), vehicle: saline
[19] = dose: 400.0 mg/kg/injection, schedule: Q01DX009 (ip), vehicle: saline
[20] = dose: 200.0 mg/kg/injection, schedule: Q01DX009 (ip), vehicle: saline with Tween-80
[21] = dose: 400.0 mg/kg/injection, schedule: Q01DX009 (ip), vehicle: saline with Tween-80

For `CC1=C(C)C(=O)O[C@@H]([C@](C)(O)[C@]2(O)CC[C@@]3(O)[C@@H]4C[C@H]5O[C@]56[C@@H](O)C=CC(=O)[C@]6(C)[C@H]4CC[C@]23C)C1`, the T/C [1] was 122 % of control, the T/C (dose: 0.25 mg/kg/injection, schedule: Q01DX009 (ip), vehicle: saline) was 107 % of control and the T/C [2] was 117 % of control. For the same compound, the T/C [3] was 116 % of control, the T/C [4] was 122 % of control and the T/C [5] was 115 % of control and 124 % of control. For the same compound, the T/C [6] was 115 % of control, the T/C [7] was 150 % of control and the T/C (dose: 16.0 mg/kg/injection, schedule: Q01DX009 (ip), vehicle: saline) was 152 % of control and 171 % of control. The T/C (dose: 16.0 mg/kg/injection, schedule: Q01DX009 (ip), vehicle: suspension in saline) was 170 % of control.
For `COc1cc2c(cc1O)C1C(O)C(O)C=C3CCN(C2)C31` (stereo not given), the T/C [7] was 114 % of control, the T/C (dose: 8.0 mg/kg/injection, schedule: Q01DX009 (ip), vehicle: saline + alcohol) was 100 % of control and the T/C (dose: 16.0 mg/kg/injection, schedule: Q01DX009 (ip), vehicle: saline + alcohol) was 105 % of control. For the same compound, the T/C (dose: 32.0 mg/kg/injection, schedule: Q01DX009 (ip), vehicle: saline + alcohol) was 102 % of control.
`CCCC(NC(=O)OCc1ccccc1)C(=O)NC(CC(C)C)C(N)=O` (stereo not given) (Cbz-[Nva]-Leu-NH2; configuration not given here) was tested, and the T/C [8] was 98 % of control, the T/C [9] was 94 % of control and the T/C (dose: 400.0 mg/kg/injection, schedule: Q01DX009 (ip), vehicle: Klucel (hydroxypropylcellulose) (HPC)) was 97 % of control.
With `OCCO` the T/C (dose: 0.25 % in 0.5 ml injection vol, schedule: Q01DX009 (ip), vehicle: water) was 97 % of control and the T/C (dose: 0.5 % in 0.5 ml injection vol, schedule: Q01DX009 (ip), vehicle: water) was 96 % of control.
For `COc1cc2c(cc1O)N=C[C@@H]1CCC(O)N1C2=O` (mixture of isomers), the T/C [3] was 100 % of control, the T/C [5] was 100 % of control and 107 % of control and the T/C [6] was 111 % of control and 106 % of control. The T/C (dose: 4.0 mg/kg/injection, schedule: Q01DX009 (ip), vehicle: saline) was 110 % of control and 121 % of control and the T/C (dose: 8.0 mg/kg/injection, schedule: Q01DX009 (ip), vehicle: saline) was 115 % of control.
With `COc1ccc(OCC(O)CN2CCN(c3ccc(Cl)cc3)CC2)cc1` (stereo not given) the T/C [10] was 122 % of control, the T/C [11] was 122 % of control and the T/C [12] was 87 % of control. For the same compound, the T/C [13] was 89 % of control and 96 % of control.
In the case of `Nc1nc(Br)nc2c1ncn2C1CC(O)C(CO)O1` (stereo not given), the T/C (dose: 7.5 mg/kg/injection, schedule: Q03HX009 (ip), vehicle: saline) was 96 % of control, the T/C (dose: 15.0 mg/kg/injection, schedule: Q03HX009 (ip), vehicle: saline) was 96 % of control and the T/C (dose: 30.0 mg/kg/injection, schedule: Q03HX009 (ip), vehicle: saline) was 93 % of control. For the same compound, the T/C (dose: 60.0 mg/kg/injection, schedule: Q03HX009 (ip), vehicle: saline) was 101 % of control.
In the case of `O=NN(CCF)C(=O)NC1C(O)CCCC1O` (stereo not given), the T/C (dose: 7.5 mg/kg/injection, schedule: Q01DX001 (ip), vehicle: saline) was 198 % of control, the T/C (dose: 15.0 mg/kg/injection, schedule: Q01DX001 (ip), vehicle: saline) was 222 % of control and the T/C (dose: 30.0 mg/kg/injection, schedule: Q01DX001 (ip), vehicle: saline) was 350 % of control. The T/C (dose: 60.0 mg/kg/injection, schedule: Q01DX001 (ip), vehicle: saline) was 350 % of control.
With `OCC1(CO)COC2(CCCCC2)N1` the T/C (dose: 6.25 mg/kg/injection, schedule: Q01DX009 (ip), vehicle: saline) was 95 % of control, the T/C [14] was 119 % of control and 96 % of control and 103 % of control and the T/C [15] was 114 % of control and 102 % of control and 104 % of control. For the same compound, the T/C [16] was 114 % of control and 96 % of control and 104 % of control, the T/C [17] was 112 % of control and 94 % of control and 104 % of control and the T/C [18] was 111 % of control and 99 % of control. For the same compound, the T/C [19] was 109 % of control and 93 % of control.
With `CN(C)N=Nc1ccnc2ccc(I)cc12` the T/C (dose: 3.13 mg/kg/injection, schedule: Q01DX009 (ip), vehicle: other) was 111 % of control, the T/C (dose: 6.25 mg/kg/injection, schedule: Q01DX009 (ip), vehicle: other) was 115 % of control and the T/C (dose: 12.5 mg/kg/injection, schedule: Q01DX009 (ip), vehicle: other) was 109 % of control. The T/C (dose: 25.0 mg/kg/injection, schedule: Q01DX009 (ip), vehicle: other) was 110 % of control and the T/C (dose: 50.0 mg/kg/injection, schedule: Q01DX009 (ip), vehicle: other) was 114 % of control.
For `COc1ccccc1N=Nc1cc(S(=O)(=O)O)c2ccccc2c1O`, the T/C [14] was 95 % of control, the T/C [15] was 92 % of control and the T/C [16] was 98 % of control. The T/C [20] was 87 % of control.
`O=Cc1ccc(O)c(O)c1` was tested, and the T/C (dose: 6.25 mg/kg/injection, schedule: Q01DX009 (ip), vehicle: saline with Tween-80) was 100 % of control, the T/C [10] was 87 % of control and the T/C [14] was 97 % of control. For the same compound, the T/C [11] was 94 % of control and 97 % of control, the T/C [15] was 99 % of control and the T/C (dose: 25.0 mg/kg/injection, schedule: Q01DX009 (ip), vehicle: water) was 112 % of control and 100 % of control. The T/C [12] was 93 % of control, the T/C [16] was 89 % of control and the T/C (dose: 50.0 mg/kg/injection, schedule: Q01DX009 (ip), vehicle: water) was 112 % of control and 90 % of control. For the same compound, the T/C [13] was 89 % of control, the T/C [17] was 96 % of control and the T/C (dose: 100.0 mg/kg/injection, schedule: Q01DX009 (ip), vehicle: water) was 95 % of control and 96 % of control. The T/C [20] was 89 % of control, the T/C [18] was 95 % of control and the T/C [21] was 92 % of control. For the same compound, the T/C [19] was 104 % of control.
`COC(=O)C12OCC34C(CC5C(C)=CC(=O)C(O)C5(C)C3C(O)C1O)OC(=O)C(OC(=O)CC(C)C)C24` (stereo not given) was tested, and the T/C [1] was 164 % of control, the T/C [2] was 180 % of control and the T/C [4] was 164 % of control. For the same compound, the T/C (dose: 2.0 mg/kg/injection, schedule: Q01DX009 (ip), vehicle: saline + alcohol) was 159 % of control.
In the case of `COc1cc2c(c(OC)c1OC)-c1c(cc3c(c1OC)OCO3)CC(C)C(C)(O)C2OC(=O)c1ccccc1` (stereo not given), the T/C (dose: 25.0 mg/kg/injection, schedule: Q01DX009 (ip), vehicle: saline + Tween-80 + alcohol) was 107 % of control, the T/C (dose: 50.0 mg/kg/injection, schedule: Q01DX009 (ip), vehicle: saline + Tween-80 + alcohol) was 98 % of control and the T/C (dose: 100.0 mg/kg/injection, schedule: Q01DX009 (ip), vehicle: saline + Tween-80 + alcohol) was 115 % of control. For the same compound, the T/C (dose: 200.0 mg/kg/injection, schedule: Q01DX009 (ip), vehicle: saline + Tween-80 + alcohol) was 110 % of control.
In the case of `CCOC(=O)c1cn(C)c2c1C(O)=C(C(=O)OC)CC(=O)N2`, the T/C [11] was 92 % of control, the T/C [12] was 96 % of control and the T/C [13] was 96 % of control. The T/C [20] was 96 % of control and the T/C [21] was 92 % of control.
With `O=C(NC(CSSCC(NC(=O)OCc1ccccc1)C(=O)O)C(=O)O)OCc1ccccc1` (stereo not given) the T/C (dose: 25.0 mg/kg/injection, schedule: Q01DX009 (ip), vehicle: Klucel (hydroxypropylcellulose) (HPC)) was 104 % of control, the T/C (dose: 50.0 mg/kg/injection, schedule: Q01DX009 (ip), vehicle: Klucel (hydroxypropylcellulose) (HPC)) was 94 % of control and the T/C [8] was 102 % of control. The T/C [9] was 88 % of control.
In the case of `Nc1nc2c(ncn2C2OC(CO)C(O)C2O)c(=O)[nH]1` (stereo not given), the T/C (dose: 75.0 mg/kg/injection, schedule: Q01DX009 (ip), vehicle: saline with Tween-80) was 120 % of control, the T/C (dose: 1200.0 mg/kg/injection, schedule: Q01DX009 (ip), vehicle: saline with Tween-80) was 121 % of control and the T/C (dose: 2400.0 mg/kg/injection, schedule: Q01DX009 (ip), vehicle: saline with Tween-80) was 116 % of control.
For `O=C(O)C1CC1.[Ag]`, the T/C (dose: 0.78 mg/kg/injection, schedule: Q01DX009 (ip), vehicle: water) was 99 % of control, the T/C (dose: 1.56 mg/kg/injection, schedule: Q01DX009 (ip), vehicle: water) was 122 % of control and the T/C (dose: 3.12 mg/kg/injection, schedule: Q01DX009 (ip), vehicle: water) was 100 % of control. The T/C (dose: 6.25 mg/kg/injection, schedule: Q01DX009 (ip), vehicle: water) was 92 % of control.
With `O=C(O)C1CC(O)CN1` (stereo not given) the T/C [16] was 101 % of control, the T/C [17] was 101 % of control and the T/C [18] was 96 % of control. The T/C [19] was 106 % of control and the T/C (dose: 800.0 mg/kg/injection, schedule: Q01DX009 (ip), vehicle: saline) was 108 % of control.
`NC(=O)SCC(N)C(=O)O` (stereo not given) was tested, and the T/C [12] was 92 % of control, the T/C [13] was 87 % of control and the T/C [20] was 96 % of control.
